Values joined by “and” are separate entries in the source; they are usually repeats but may differ in a detail not shown here. Equal values may be shown once. Where a name gives a salt, the structure may show the parent alone.
Legend:
[1] = system: dopamine-induced suppression of gastrointestinal transit; assay: Improving effects on dopamine-induced suppression of gastrointestinal transit in mice (charcoal meal); assay type: in vivo, mice (male ddY); details: for Improvement (%) / Gastrointestinal transit (% ± S.E.): test compound 30 mg/kg p.o. + dopamine 2 mg/kg i.p.; for Gastrointestinal transit (% ± S.E.): 20 min after charcoal meal; for improvement of gastrointestinal transit inhibited by dopamine (in words): 30 mg/kg p.o.
Procedure: Improving effects of the test compound on dopamine-induced suppression of gastrointestinal transit in mice
Male mice of the ddY strain weighing about 22 g were fasted overnight and the test compounds (suspended in 0.5% carboxymethylcellulose) were administered orally. Thirty minutes later dopamine (2 mg/kg dissolved in saline) or saline only was administered intraperitoneally followed immediately by the oral administration of charcoal meal (5% charcoal powder suspended in 10% gum arabic). Twenty minutes later the animals were sacrificed and the digestive tracts were isolated from the stomach to the cecum. The gastrointestinal transit was determined by calculating the total intestinal length between the pylorus and the cecum and the length over which charcoal meal was carried from the pylorus. Statistical analysis was carried out by Student's t-test for unpaired observations.

[2] = Acute toxicological study in mice (up and down method); details: mouse, in vivo; intravenous, male ICR mice aged 5 weeks
Procedure: Acute toxicological study in mice
Male ICR mice aged 5 weeks were used for each determination. The test compounds (2-4 different doses) were intravenously administered and LD50 values were calculated using the up and down method. Results were as follows (Table 3).

[3] = system: isolated guinea pig ileum; assay: Contractile effects of the test compounds in isolated guinea pig ileum; parameters: species or system guinea pig (male Hartley); details: for EC50: Cavia porcellus, isolated ileum strips, 37° C, relative to 10^-6 M acetylcholine-induced contraction, read-out: ED50 (dose which evoked 50% of the acetylcholine-induced contraction)
Procedure: Contractile effects of the test compounds in isolated guinea pig ileum
Male Hartley guinea-pigs weighing about 450 g were sacrificed and the ileum was excised. Then intact strips 1.5-2.0 cm long were prepared. These preparations were suspended vertically in an organ bath filled with Krebs-Henseleit's solution at 37° C. which was gassed with 95% O2 and 5% CO2. Rhythmic contractions of the preparations were isotonically measured. Effects of the test compounds were assessed as the relative percentage of a test compound against 10^-6 M acetylcholine-induced contractions. Results were as follows (Table 1).
*The dose which evoked 50% of the acetylcholineinduced contraction.

[4] = system: apomorphine-induced emesis; assay: Suppressing effects on apomorphine-induced emesis in beagle dogs; assay type: in vivo, beagle dogs (male); details: apomorphine s.c., observed for sixty minutes
Procedure: Suppressing effects of the test compounds on apomorphine-induced emesis in beagle dogs
Male beagle dogs weighing about 8 kg were fasted overnight. The test compounds (suspended or dissolved in 0.5% CMC) were administered orally and the dogs fed fortyfive minutes later.

SMILES | LD50 [2] [mg/kg] | EC50 [3] [µM] | further results
COc1cc(N)c(Cl)cc1C(=O)NCc1ccc(OCCN2CCCC2)cc1 [Compound 34, 4-amino-5-chloro-2-methoxy-N-[4-[2-(1-pyrrolidinyl)ethoxy]benzyl] benzamide] | 44.7 | 0.12 | Improvement (%) [1]: 63.4%; Gastrointestinal transit (% ± S.E.) [1]: 46.6 ± 3.4%
COc1cc(OC)cc(C(=O)NCc2ccc(OCCN(C)C)cc2)c1 [Compound 14] | – | 0.69 | –
Cc1cc(C(=O)NCc2ccc(OCCN(C)C)cc2)ccc1[N+](=O)[O-] [Compound 62] | – | 0.39 | –
COc1ccc(C(=O)NCc2ccc(OCCN3CCCC3)cc2)cc1OC [Compound 18, 3,4-Dimethoxy-N-[4-[2-(1-pyrrolidinyl)ethoxy]benzyl]benzamide] | – | – | Improvement (%) [1]: 71.7%; Gastrointestinal transit (% ± S.E.) [1]: 43.0 ± 6.5%
CN(C)CCOc1ccc(CNC(=O)c2ccc(Cl)cc2Cl)cc1 [Compound 59] | – | 0.62 | –
COc1ccc(S(N)(=O)=O)cc1C(=O)NCc1ccc(OCCN2CCCCC2)cc1 [Compound 38] | – | 0.35 | –
CN(C)CCOc1ccc(CNC(=O)c2ccc(C#N)cc2)cc1 [Compound 53] | 77.6 | 0.46 | –
COc1ccc(C(=O)NCc2ccc(OCCN(C)C)cc2)cc1 [Compound 24] | – | 0.61 | –
CN(C)CCOc1ccc(CNC(=O)c2ccccc2)cc1 [Compound 20] | – | 0.5 | –
COc1cc(N)c(Cl)cc1C(=O)NCc1ccc(OCCN2CCCCC2)cc1 [Compound 35] | 61.7 | 0.49 | –
CCOc1ccc(C(=O)NCc2ccc(OCCN(C)C)cc2)cc1OCC [Compound 32] | 112 | 0.14 | –
CCOc1ccc(C(=O)NCc2ccc(OCCN(C)C)cc2)cc1OC [Compound 31, N-[4-[2-(dimethylamino)ethoxy]benzyl]-4-ethoxy-3-methoxybenzamide] | 105 | 0.42 | Improvement (%) [1]: 58.5%; Gastrointestinal transit (% ± S.E.) [1]: 45.2 ± 3.0%
COc1cccc(C(=O)NCc2ccc(OCCN(C)C)cc2)c1 [Compound 23] | 74.1 | 0.3 | –
COc1ccc(S(N)(=O)=O)cc1C(=O)NCc1ccc(OCCN(C)C)cc1 [Compound 6, N-[4-[2-(Dimethylamino)ethoxy]benzyl]-2-methoxy-5-sulfamoylbenzamide] | 39.2 | 0.4 | –
CN(C)CCOc1ccc(CNC(=O)c2ccc([N+](=O)[O-])cc2)cc1 [Compound 52] | – | 0.45 | –
Cc1ccc(C(=O)NCc2ccc(OCCN(C)C)cc2)cc1 [Compound 48] | 83.2 | 0.51 | –
Cc1cccc(C(=O)NCc2ccc(OCCN(C)C)cc2)c1 [Compound 47] | 68.5 | 3 | –
O=C(NCc1ccc(OCCN2CCCC2)cc1)c1ccc2c(c1)OCO2 [Compound 3, 3,4-Methylenedioxy-N-[4-[2-(1-pyrrolidinyl)ethoxy]benzyl]benzamide] | 62.6 | 0.46 | Improvement (%) [1]: 56.9%; Gastrointestinal transit (% ± S.E.) [1]: 44.0 ± 4.7%
O=C(NCc1ccc(OCCN2CCCC2)cc1)c1cccc([N+](=O)[O-])c1 [Compound 58] | – | 0.42 | –
COc1cc(N)c(Cl)cc1C(=O)NCc1ccc(OCCN(C)C)cc1 [Compound 5, 4-Amino-5-chloro-N-[4-[2-(dimethylamino)ethoxy]benzyl]-2-methoxybenzamide] | 94 | 0.18 | –

SMILES | LD50 [2] [mg/kg] | EC50 [3] [µM] | further results
NCCc1ccc(O)c(O)c1 [Dopamine, dopamine] | – | – | Gastrointestinal transit (% ± S.E.), dopamine alone ([1]; dopamine alone 2 mg/kg i.p., no test compound (model control group)): 25.0 ± 3.4% and 35.9 ± 2.1% and 32.9 ± 3.1% and 32.1 ± 2.0% and 31.7 ± 3.2%
CN(C)CCOc1ccc(CNC(=O)c2cccc([N+](=O)[O-])c2)cc1 [Compound 51] | 85.9 | 0.61 | –
CNS(=O)(=O)c1ccc(OC)c(C(=O)NCc2ccc(OCCN(C)C)cc2)c1 [Compound 36] | – | 0.34 | –
COc1ccc(S(=O)(=O)N(C)C)cc1C(=O)NCc1ccc(OCCN(C)C)cc1 [Compound 7, N-[4-[2-(Dimethylamino)ethoxy]benzyl]-5-dimethylaminosulfonyl 2-methoxybenzamide] | – | 0.3 | –
CN(C)CCOc1ccc(CNC(=O)c2ccc(S(N)(=O)=O)cc2)cc1 [Compound 8, N-[4-[2-(Dimethylamino)ethoxy]benzyl]-4-sulfamoylbenzamide] | 85.1 | 1.6 | –
CCOc1ccc(C(=O)NCc2ccc(OCCN(C)C)cc2)cc1 [Compound 25] | 87.1 | 0.68 | –
CNS(=O)(=O)c1ccc(OC)c(C(=O)NCc2ccc(OCCN3CCCC3)cc2)c1 [Compound 43] | – | < 0.1 | –
COc1ccc(C(=O)NCc2ccc(OCCN3CCCCC3)cc2)cc1OC [Compound 19] | 70.8 | 0.42 | –
CN(C)S(=O)(=O)c1cc(C(=O)NCc2ccc(OCCN3CCCC3)cc2)ccc1Cl [Compound 40] | – | 0.6 | –
COc1cc(C(=O)NCc2ccc(OCCN(C)C)cc2)cc(OC)c1OC [Trimethobenzamide HCl, N-[4-[2-(dimethylamino)ethoxy]benzyl]-3,4,5-trimethoxybenzamide] | – | 1.5 | improvement of gastrointestinal transit inhibited by dopamine (in words) [1]: did not so only to a much lesser extent; Improvement (%) [1]: 32.4%; Gastrointestinal transit (% ± S.E.) [1]: 38.2 ± 3.8%; antiemetic effect ([4]; 30 mg/kg p.o.): significant antiemetic effect
CN(C)CCOc1ccc(CNC(=O)c2cccc(Cl)c2)cc1 [Compound 45] | – | 4.6 | –
N#Cc1ccc(C(=O)NCc2ccc(OCCN3CCCC3)cc2)cc1 [Compound 57] | – | 0.93 | –
COc1ccc(C(=O)NCc2ccc(OCCN(C)C)cc2)cc1OC.Cl [Compound 2, N-[4-[2-(Dimethylamino)ethoxy]benzyl]-3,4-dimethoxybenzamide hydrochloride] | 191 | 0.6 | Improvement (%) [1]: 56.5%; Gastrointestinal transit (% ± S.E.) [1]: 43.9 ± 2.8%; times stronger contractile effect than metoclopramide.HCl ([3]; isolated guinea pig ileum, compared with metoclopramide.HCl): about 10 times; times stronger contractile effect than trimethobenzamide.HCl ([3]; isolated guinea pig ileum, compared with trimethobenzamide.HCl): about 2.5 times; antiemetic effect ([4]; 30 mg/kg p.o.): slight antiemetic effect
COc1ccc(S(N)(=O)=O)cc1C(=O)NCc1ccc(OCCN2CCCC2)cc1 [Compound 37] | – | 0.18 | –
CN(C)CCOc1ccc(CNC(=O)c2ccc(N(C)C)cc2)cc1 [Compound 55] | – | 1.3 | –
Cc1ccc(C(=O)NCc2ccc(OCCN3CCCC3)cc2)cc1 [Compound 56] | – | 0.32 | –
Cc1cc(C(=O)NCc2ccc(OCCN3CCCC3)cc2)ccc1[N+](=O)[O-] [Compound 63] | – | 0.5 | –
CCN(CC)CCNC(=O)c1cc(Cl)c(N)cc1OC [Metoclopramide HCl, 4-Amino-5-chloro-N-[(2-diethylamino)ethyl]-2-methoxybenzamide] | – | 6.3 | improvement of gastrointestinal transit inhibited by dopamine (in words) [1]: did not so only to a much lesser extent; Improvement (%) [1]: 27.1%; Gastrointestinal transit (% ± S.E.) [1]: 37.2 ± 3.2%; antiemetic effect ([4]; 1 mg/kg p.o.): significant antiemetic effect
COc1cc(N)c(S(N)(=O)=O)cc1C(=O)NCc1ccc(OCCN(C)C)cc1 [Compound 41] | – | 0.13 | –
CN(C)CCOc1ccc(CNC(=O)c2ccc(Cl)c(S(=O)(=O)N(C)C)c2)cc1 [Compound 39] | – | 0.39 | –

Reference: patent US4983633A, “Amide compounds, process for preparing the same, and composition for activating gastric motor function containing the same” (Hokuriku Pharmaceutical Co., Ltd., priority 1987, dated 1991)
